The nature of data set [1]: Renal and biliary excretion in bile-duct cannulated dogs. Format: in vivo, dog. The method, then:
The renal and biliary excretion of test compounds is tested in bile-duct cannulated dogs essentially according to Burkey J L, et al. (2002) Disposition of LY333531, a selective protein kinase C beta inhibitor, in the Fischer 344 rat and beagle dog. Xenobiotica 32:1045-1052. The compound of Example 7 is tested essentially as described and its renal and biliary excretion is found to be negligible. The fraction of compound cleared through CYP3A4 metabolism is calculated using the equation below: […]

A further data set concerns the target human D1 receptor (Homo sapiens (Human), UniProt P21728). Nature of the data set: Human D1 Receptor PAM Assay (cAMP HTRF, potentiator mode). The data set is classed as cell-based. An excerpt: The PAM activity of the compounds of the present invention may be measured essentially as described in Svensson et al., An Allosteric Potentiator of the Dopamine D1 Receptor Increases Locomotor Activity in Human D1 Knock-in Mices without Casusing Stereotypy or Tachyphylaxis. J. Pharmacol. Exp. Ther. (2017) 360:117-128.
More specifically, HEK293 cells that stably express the human D1 receptor (Accession number NM_000794) are generated by gene transduction using the pBABE-bleo retroviral vector and selected with Zeocin™ (InvivoGen). At approximately 80% confluency, the cells are harvested using TrypLE™ Express (Gibco), suspended in FBS plus 8% DMSO, and stored in liquid nitrogen. On the day of the assay, cells are thawed and resuspended in STIM buffer (Hanks Balanced Salt Solution supplemented with 0.1% BSA, 20 mM HEPES, 500 μM IBMX, and 100 μM ascorbic acid).
Test compound is serially diluted (1:2) with DMSO into assay plates (ProxiPlate-384 Plus, PerkinElmer) using acoustic dispensing (Labcyte) to provide 20 concentrations for full response curves. Test compound (80 nL) is added to 5 μL STIM buffer containing 2000 cells, and 5 μL of a 2×concentration dopamine solution in STIM buffer that will generate an EC20 level response (24 nM in stock solution, or 12 nM final) and a final DMSO concentration in the well of 0.8%. Plates are incubated at room temperature for a total reaction time of 60 min.
cAMP production is quantified using HTRF® detection (Cisbio) according to the manufacturer's instructions. Generally, lysis buffer containing anti-cAMP cryptate (5 μL) and D2-conjugate (from HTRF® kit)(5 μL) is added to the wells, plates are incubated for an additional 60-90 min, and the time-resolved fluorescence is detected using an EnVision™ plate reader (PerkinElmer). Fluorescence data is converted to cAMP concentrations using a cAMP standard curve and analyzing using a 4-parameter non-linear logistic equation (Genedata Screener, version 13.0.5-standard). For potentiator mode concentration-response curves, results are expressed as percent of the window between a response at EC20 concentration of dopamine alone (normalized to 0%) and the maximum response to dopamine (defined by response to 5 μM dopamine, final concentration, normalized as 100%). Absolute EC50 values are calculated based on the maximum and minimum responses of the control agonist (dopamine). The % Potentiation (% Top) is determined from the fitted top of the concentration response curve.
Background: Time-resolved FRET reads energy transfer from a long-lived donor to a nearby acceptor.

Another data set concerns the target CYP3A4 (Homo sapiens (Human), UniProt P08684). Put plainly: Calculation of fraction of compound cleared through CYP3A4 metabolism (fmCYP3A4). Particulars: fmCYP × fm3A4_RCP (worst-case fm3A4_RCP = 1). An excerpt:
The fraction of overall clearance of a drug via oxidative metabolism by the cytochrome P450 (CYP) is an important indication for potential victim drug-drug interaction mediated adverse effects. (see generally Ogu, Chris C., and Maxa, Jan L., Drug interactions due to cytochrome P450, BUMC Proceedings 2000; 13:421-423.) The greater fraction of overall clearance for a given drug that goes though a CYP oxidation pathway, particularly exclusively through a single CYP, as for example CYP3A4, the greater the potential that the drug may be found susceptible to undesired victim drug-drug interactions when used in therapy. To determine the fmCYP3A4 (the fraction of metabolism via CYP3A4), the fraction of P450-mediated oxidation, (fmCYP) is first determined in human hepatocytes. The relative contribution of CYP3A4 mediated oxidation (fmCYP3A4_RCP) over other P450 s is then determined using a recombinant CYP phenotyping assay (RCP). The fmCYP3A4 is calculated using the following equation:
fmCYP3A4=fmCYP×fmCYP3A4_RCP
The renal and biliary excretion of test compounds is tested in bile-duct cannulated dogs essentially according to Burkey J L, et al. (2002) Disposition of LY333531, a selective protein kinase C beta inhibitor, in the Fischer 344 rat and beagle dog. Xenobiotica 32:1045-1052. […] The fraction of compound cleared through CYP3A4 metabolism is calculated using the equation below: […]

The nature of data set [2]: Fraction escaping first-pass gut metabolism (FG). The arrangement: species or system human. The conditions noted are these: calculated. From the text: The estimation of fraction metabolized in the gut may be determined using the following equation found in Yang J, et al. (2007) Prediction of intestinal first-pass drug metabolism. Curr Drug Metab 8:676-684:
FG=Qgut/(Qgut+fugut×Clint CYP3A,gut)
Qgut=Qvilli×Clperm/(Qvilli+Clperm)
Clperm═Papp×Intestinal surface area
Clint,CYP3A,gut=CLint,CYP3A,liver/fumic×microsomal protein in gut (mg)×0.4 (in house calculation) Where Qgut is a hybrid flow term dependent upon the villous blood flow and permeability of the compound fugut is the fraction of drug unbound in the enterocyte
Qvilli is villous blood flow
Clperm is the clearance term defining permeability through the enterocyte
Papp is the passive permeability measured in MDCKII cell line in house fumic is the fraction of drug unbound in human liver microsomes
Human intestine parameters are from Yang et al., 2007, and Gertz M, et al. (2010) Prediction of human intestinal first-pass metabolism of 25 CYP3A substrates from in vitro clearance and permeability data. Drug Metab Dispos 38:1147-1158.

The nature of data set [3]: Fraction unbound in vitro (equilibrium dialysis). Format: in vitro ADME. As for the experimental part: Example 7, 2-(2-chloro-6-fluoro-phenyl)-1-[(1S,3R)-6-fluoro-3-(hydroxymethyl)-5-(3-hydroxy-3-methyl-butyl)-1-methyl-3,4-dihydro-1H-isoquinolin-2-yl]ethenone, was orally dosed to male mouse from 3 mg/kg to 60 mg/kg in fed condition, and the plasma and brain concentration was determined 1 hr post-dose. The fraction unbound of the compound was determined in vitro as described previously (Zamek-Gliszczynski M J, et al., Validation of 96-well equilibrium dialysis with non-radiolabeled drug for definitive measurement of protein binding and application to clinical development of highly-bound drugs, J. Pharm. Sci. (2011) 100: 2498-2507). The ratio (Kpuu) of unbound brain concentration (Cu, brain) vs. unbound plasma concertation (Cu, plasma) was determined as described previously (Raub T J, et al., Brain Exposure of Two Selective Dual CDK4 and CDK6 Inhibitors and the Antitumor Activity of CDK4 and CDK6 Inhibition in Combination with Temozolomide in an Intracranial Glioblastoma Xenograft. Drug Metab. Dispos. (2015) 43:1360-71). The data presented below in Table 3 for Example 7 are averages from 3 animals at each dose. “Con.” refers to concentration.
A general note: Equilibrium dialysis compares concentrations on both sides of a semipermeable membrane.

Like-named read-outs stand apart in the source and are kept apart here.

The term EC50 denotes the concentration at which the effect is half-maximal.

Chain of human D1 receptor (P21728 whole entry): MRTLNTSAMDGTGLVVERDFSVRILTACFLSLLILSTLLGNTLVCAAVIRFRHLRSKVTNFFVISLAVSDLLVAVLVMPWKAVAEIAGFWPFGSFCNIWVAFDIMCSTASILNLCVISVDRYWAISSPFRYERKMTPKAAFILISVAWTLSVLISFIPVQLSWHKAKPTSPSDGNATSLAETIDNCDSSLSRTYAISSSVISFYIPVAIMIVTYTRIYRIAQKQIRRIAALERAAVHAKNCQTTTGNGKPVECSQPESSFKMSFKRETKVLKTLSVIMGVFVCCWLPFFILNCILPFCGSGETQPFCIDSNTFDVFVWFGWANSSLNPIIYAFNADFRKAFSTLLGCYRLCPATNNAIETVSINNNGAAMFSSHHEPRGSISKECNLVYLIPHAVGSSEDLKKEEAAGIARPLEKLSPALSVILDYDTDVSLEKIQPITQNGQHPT

For the compound `C[C@H]1c2ccc(F)c(CCC(C)(C)O)c2C[C@H](CO)N1C(=O)Cc1c(F)cccc1Cl` [Example 7, 2-(2-chloro-6-fluoro-phenyl)-1-[(1S,3R)-6-fluoro-3-(hydroxymethyl)-5-(3-hydroxy-3-methyl-butyl)-1-methyl-3,4-dihydro-1H-isoquinolin-2-yl]ethanone], the “renal and biliary excretion” value in data set [1] is reported as “negligible”. On human D1 receptor (HEK293 cells expressing human D1, with EC20 dopamine (12 nM final), cAMP, read-out: Abs EC50), the concentration giving a half-maximal response (EC50) was 10.2 ± 1.4 nM. Also, the “% Top (% Potentiation)” value on human D1 receptor (fitted top, 0% = EC20 dopamine alone, 100% = 5 μM dopamine) came out at 90.9%. Moreover, at CYP3A4, the fmCYP3A4 was 0.322. Moreover, in data set [2], the FG is reported as 0.78. Also, the fraction unbound was found to be 0.0249 in data set [3] (fraction unbound in brain, read-out: fu, brain) and 0.0141 in data set [3] (fraction unbound in plasma, read-out: fu, plasma).
